Data: patent US9221827B2, “Antimicrobial compounds and methods of making and using the same” (Melinta Therapeutics, Inc., priority 2011, dated 2015)

system: Escherichia coli strain ATCC25922; assay: standard microdilution assay to determine minimum inhibitory concentrations (MICs); type: cell-based; conditions: Escherichia coli strain ATCC25922, microdilution
Protocol: The in vitro activity of the compounds of the present invention can be determined. Antimicrobial testing is typically performed to determine the minimum inhibitory concentration (MIC). Minimum inhibitory concentrations (MICs) are determined by the microdilution method in a final volume of 100 μl according to protocols outlined by The Clinical and Laboratory Standards Institute (CLSI). Performance standards for reference strains are assessed within the same experimental design to maintain quality control. See, for example, Clinical Laboratory Standards Institute: Methods for dilution antimicrobial susceptibility tests for bacteria that grow aerobically M7-A8. Approved Standard-Eighth Edition. Wayne, Pa.: CLSI; December 2008; and Clinical Laboratory Standards Institute: Performance Standards for Antimicrobial Susceptibility Testing M100-S20; Approved Standard-Twentieth Edition. Wayne, Pa.: CLSI; June 2010.
The compounds of the present invention were tested for antimicrobial activity. […] The compounds were run against Escherichia coli strain ATCC25922 using a standard microdilution assay to determine minimum inhibitory concentrations (MICs). […] A “N/A” means that data is unavailable. It will be recognized by one skilled in the art that the compounds can be assessed against other bacterial organisms and that the presentation of data for activity against Escherichia coli is illustrative and in no way is intended to limit the scope of the present invention. The compounds of the present invention can be assayed against a range of other microorganisms depending upon the performance activity desired to be gathered. Furthermore, the “+”, “−”, and “N/A” representation and the selection of a cutoff value of 16 micrograms/ml is also illustrative and in no way is intended to limit the scope of the present invention.

| Structure (SMILES) | E. coli ATCC25922 MIC |
| --- | --- |
| CSCCc1cc(CCCCN)cc(-c2cc3cn(-c4ccc(CNCCCNC(=N)N)cc4)c(=O)nc3[nH]2)c1 [Compound 11] | + (a “+” indicates that the compound has an MIC value of 16 micrograms/ml or less) |
| COc1cc(CCCCN)cc(-c2cc3cn(-c4ccc(CNCCCNC(=N)N)cc4)c(=O)nc3[nH]2)c1 [Compound 14] | + (a “+” indicates that the compound has an MIC value of 16 micrograms/ml or less) |
| N=C(N)NCCCNCc1ccc(-n2cc3cc(-c4cc(CS(=O)(=O)CCN)ccc4F)[nH]c3nc2=O)cc1 [Compound 15] | + (a “+” indicates that the compound has an MIC value of 16 micrograms/ml or less) |
| N=C(N)NCCCNCc1ccc(-n2cc3cc(-c4cc(CS(=O)(=O)CCN)cc(OC(F)(F)F)c4)[nH]c3nc2=O)cc1 [Compound 16] | + (a “+” indicates that the compound has an MIC value of 16 micrograms/ml or less) |
| N=C(N)NCCCNCc1ccc(-n2cc3cc(-c4cc(CCCCN)cc(C5CC5)c4)[nH]c3nc2=O)cc1 [Compound 18] | + (a “+” indicates that the compound has an MIC value of 16 micrograms/ml or less) |
| CS(=O)(=O)CCc1cc(CCCCN)cc(-c2cc3cn(-c4ccc(CNCCCNC(=N)N)cc4)c(=O)nc3[nH]2)c1 [Compound 22] | + (a “+” indicates that the compound has an MIC value of 16 micrograms/ml or less) |
| N=C(N)NCCCNCc1ccc(-n2cc3cc(-c4cc(C[S+]([O-])CCN)ccc4F)[nH]c3nc2=O)cc1 (stereo not shown) [Compound 23] | + (a “+” indicates that the compound has an MIC value of 16 micrograms/ml or less) |
| N=C(N)NCCCNCc1ccc(-n2cc3cc(-c4cc(COCCN)ccc4F)[nH]c3nc2=O)cc1 [Compound 24] | + (a “+” indicates that the compound has an MIC value of 16 micrograms/ml or less) |
| CCNCCc1cc(CCCCN)cc(-c2cc3cn(-c4ccc(CNCCCNC(=N)N)cc4)c(=O)nc3[nH]2)c1 [Compound 26] | + (a “+” indicates that the compound has an MIC value of 16 micrograms/ml or less) |
| CC(N)CCCc1cc(-c2cc3cn(-c4ccc(CNCCCNC(=N)N)cc4)c(=O)nc3[nH]2)cc(C(F)(F)F)c1 (stereo not shown) [Compound 27] | + (a “+” indicates that the compound has an MIC value of 16 micrograms/ml or less) |
| N=C(N)NCCCNCc1ccc(-n2cc3cc(-c4cc(C(O)CCCN)cc(C(F)(F)F)c4)[nH]c3nc2=O)cc1 (stereo not shown) [Compound 29] | + (a “+” indicates that the compound has an MIC value of 16 micrograms/ml or less) |
| N=C(N)NCC(F)(F)CNCc1ccc(-n2cc3cc(-c4cc(CCCCN)cc(OC(F)(F)F)c4)[nH]c3nc2=O)cc1 [Compound 30] | + (a “+” indicates that the compound has an MIC value of 16 micrograms/ml or less) |
| CC(C)(CNCc1ccc(-n2cc3cc(-c4cc(CCCCN)cc(OC(F)(F)F)c4)[nH]c3nc2=O)cc1)CNC(=N)N [Compound 31] | + (a “+” indicates that the compound has an MIC value of 16 micrograms/ml or less) |
| C[S+]([O-])c1cc(CCCCN)cc(-c2cc3cn(-c4ccc(CNCCCNC(=N)N)cc4)c(=O)nc3[nH]2)c1 (stereo not shown) [Compound 32] | + (a “+” indicates that the compound has an MIC value of 16 micrograms/ml or less) |
| CS(=O)(=O)c1cc(CCCCN)cc(-c2cc3cn(-c4ccc(CNCCCNC(=N)N)cc4)c(=O)nc3[nH]2)c1 [Compound 33] | + (a “+” indicates that the compound has an MIC value of 16 micrograms/ml or less) |
| C[C@H](CNCc1ccc(-n2cc3cc(-c4cc(CCCCN)cc(OC(F)(F)F)c4)[nH]c3nc2=O)cc1)CNC(=N)N [Compound 34] | + (a “+” indicates that the compound has an MIC value of 16 micrograms/ml or less) |
| C[C@@H](CNCc1ccc(-n2cc3cc(-c4cc(CCCCN)cc(OC(F)(F)F)c4)[nH]c3nc2=O)cc1)CNC(=N)N [Compound 35] | + (a “+” indicates that the compound has an MIC value of 16 micrograms/ml or less) |
| N=C(N)NCCCNCc1ccc(-n2cc3cc(-c4cc(COCCN)cc(OC(F)(F)F)c4)[nH]c3nc2=O)cc1 [Compound 36] | + (a “+” indicates that the compound has an MIC value of 16 micrograms/ml or less) |
| N=C(N)NCCCNCc1ccc(-n2cc3cc(-c4cc(CCCCN)cc(F)c4Cl)[nH]c3nc2=O)cc1 [Compound 37] | + (a “+” indicates that the compound has an MIC value of 16 micrograms/ml or less) |
| N=C(N)NCCCCc1cc(F)c(Cl)c(-c2cc3cn(-c4ccc(CNCCCNC(=N)N)cc4)c(=O)nc3[nH]2)c1 [Compound 38] | + (a “+” indicates that the compound has an MIC value of 16 micrograms/ml or less) |

| Structure (SMILES) | E. coli ATCC25922 MIC |
| --- | --- |
| N=C(N)NCCCNCc1ccc(-n2cc3cc(-c4cc(CCCCN)cc(OC(F)(F)F)c4)[nH]c3nc2=O)cc1F [Compound 39] | + (a “+” indicates that the compound has an MIC value of 16 micrograms/ml or less) |
| N=C(N)NCCCNCc1ccc(-n2cc3cc(-c4cc(CCCCN)cc(C5CCC5)c4)[nH]c3nc2=O)cc1 [Compound 40] | + (a “+” indicates that the compound has an MIC value of 16 micrograms/ml or less) |
| CC(=O)Nc1cc(CCCCN)cc(-c2cc3cn(-c4ccc(CNCCCNC(=N)N)cc4)c(=O)nc3[nH]2)c1 [Compound 41] | + (a “+” indicates that the compound has an MIC value of 16 micrograms/ml or less) |
| N=C(N)NCCCNCc1ccc(-n2cc3cc(-c4cc(OC(F)(F)F)cc(C(O)CCCN)c4)[nH]c3nc2=O)cc1 (stereo not shown) [Compound 42] | + (a “+” indicates that the compound has an MIC value of 16 micrograms/ml or less) |
| N=C(N)NCCCNCc1ccc(-n2cc3cc(-c4cc(Br)c(CC(O)CCN)c(OC(F)(F)F)c4)[nH]c3nc2=O)cc1 (stereo not shown) [Compound 43] | + (a “+” indicates that the compound has an MIC value of 16 micrograms/ml or less) |
| COc1c(CCCCN)cc(-c2cc3cn(-c4ccc(CNCCCNC(=N)N)cc4)c(=O)nc3[nH]2)cc1OC(F)(F)F [Compound 44] | + (a “+” indicates that the compound has an MIC value of 16 micrograms/ml or less) |
| COC(=O)NCCCCc1cc(-c2cc3cn(-c4ccc(CNCCCNC(=N)N)cc4)c(=O)nc3[nH]2)cc(OC(F)(F)F)c1OC [Compound 45] | + (a “+” indicates that the compound has an MIC value of 16 micrograms/ml or less) |
| CC(C)c1cc(CCCCN)cc(-c2cc3cn(-c4ccc(CNCCCNC(=N)N)cc4)c(=O)nc3[nH]2)c1 [Compound 46] | + (a “+” indicates that the compound has an MIC value of 16 micrograms/ml or less) |
| NCCCCc1cc(OC(F)(F)F)cc(-c2cc3cn(-c4ccc(CNCCCN/C(N)=N\CCCF)cc4)c(=O)nc3[nH]2)c1 [Compound 47] | + (a “+” indicates that the compound has an MIC value of 16 micrograms/ml or less) |
| CS(=O)(=O)Nc1cc(CCCCN)cc(-c2cc3cn(-c4ccc(CNCCCNC(=N)N)cc4)c(=O)nc3[nH]2)c1 [Compound 48] | + (a “+” indicates that the compound has an MIC value of 16 micrograms/ml or less) |
| N=C(N)NCCCNCc1ccc(-n2cc3cc(-c4cc(CCCCN)cc(NC(N)=O)c4)[nH]c3nc2=O)cc1 [Compound 49] | + (a “+” indicates that the compound has an MIC value of 16 micrograms/ml or less) |
| N=C(N)NCCCNCc1ccc(-n2cc3cc(-c4cc(CCCCN)ccc4OC(F)(F)F)[nH]c3nc2=O)cc1 [Compound 50] | + (a “+” indicates that the compound has an MIC value of 16 micrograms/ml or less) |
| N=C(N)NCCCNCc1ccc(-n2cc3cc(-c4cc(C(O)CCCN)ccc4Cl)[nH]c3nc2=O)cc1 (stereo not shown) [Compound 51] | + (a “+” indicates that the compound has an MIC value of 16 micrograms/ml or less) |
| N=C(N)NCCCNCc1c(F)cc(-n2cc3cc(-c4cc(CCCCN)cc(OC(F)(F)F)c4)[nH]c3nc2=O)cc1F [Compound 52] | + (a “+” indicates that the compound has an MIC value of 16 micrograms/ml or less) |
| N=C(N)NCCCNCc1c(F)cc(-n2cc3cc(-c4cc(CCCCN)ccc4F)[nH]c3nc2=O)cc1F [Compound 53] | + (a “+” indicates that the compound has an MIC value of 16 micrograms/ml or less) |
| N=C(N)NCCCNCc1ccc(-n2cc3cc(-c4cc(CCCCN)ccc4F)[nH]c3nc2=O)cc1F [Compound 54] | + (a “+” indicates that the compound has an MIC value of 16 micrograms/ml or less) |
| N=C(N)NCCCNCc1ccc(-n2cc3cc(-c4cc(CCCCN)cc(-n5ccnn5)c4)[nH]c3nc2=O)cc1 [Compound 55] | + (a “+” indicates that the compound has an MIC value of 16 micrograms/ml or less) |
| N=C(N)NCCCCc1cc(-c2cc3cn(-c4ccc(CNCCCNC(=N)N)cc4)c(=O)nc3[nH]2)cc(-n2ccnn2)c1 [Compound 56] | + (a “+” indicates that the compound has an MIC value of 16 micrograms/ml or less) |
| Cc1ccc(CCCCN)cc1-c1cc2cn(-c3ccc(CNCCCNC(=N)N)cc3)c(=O)nc2[nH]1 [Compound 57] | + (a “+” indicates that the compound has an MIC value of 16 micrograms/ml or less) |
| N=C(N)NCCCNCc1ccc(-n2cc3cc(-c4cc(OC(F)(F)F)cc(C(F)CCCN)c4)[nH]c3nc2=O)cc1 (stereo not shown) [Compound 58] | + (a “+” indicates that the compound has an MIC value of 16 micrograms/ml or less) |
